Like-named read-outs stand apart in the source and are kept apart here.
Assays:
[1] = system: brain levels of noradrenalin (NA); experiment: In vivo microdialysis, NA; set-up: species or system rat
Protocol: The purpose of the present study was to examine, by in vivo microdialysis technique, the effects after administration of compound (I) on brain levels of serotonin, noradrenalin and dopamine within the ventral hippocampus (Hipp), prefrontal cortex (PFC), striatum (STR) and nucleus accumbens (N.Acc) of anaesthetized rats and mice. Compound (I) represents dual acting serotonin/dopamine reuptake inhibitors and was tested in comparison to citalopram a selective serotonin uptake inhibitor. Compound (I) was tested following subcutaneous injections at dose levels between 0.25-30 mg/kg. […] Pre-treatment with the 5-HT1A autoreceptor antagonist WAY-100635 induced a further minor increase of the compound (I) (0.25 mg/kg) induced increase in the PFC level of 5-HT.

[2] = 5 days p.o. tolerated dose study in female mice (non-GLP); type: in vivo, mouse; conditions: p.o. 5 days, 3, 5, 15, 30, 60 mg/kg
[3] = target: NA transporter (Rattus norvegicus, UniProt Q63380); experiment: ^3H-Nisoxetine binding, rat
Chain of NA transporter (Q63380 1-617): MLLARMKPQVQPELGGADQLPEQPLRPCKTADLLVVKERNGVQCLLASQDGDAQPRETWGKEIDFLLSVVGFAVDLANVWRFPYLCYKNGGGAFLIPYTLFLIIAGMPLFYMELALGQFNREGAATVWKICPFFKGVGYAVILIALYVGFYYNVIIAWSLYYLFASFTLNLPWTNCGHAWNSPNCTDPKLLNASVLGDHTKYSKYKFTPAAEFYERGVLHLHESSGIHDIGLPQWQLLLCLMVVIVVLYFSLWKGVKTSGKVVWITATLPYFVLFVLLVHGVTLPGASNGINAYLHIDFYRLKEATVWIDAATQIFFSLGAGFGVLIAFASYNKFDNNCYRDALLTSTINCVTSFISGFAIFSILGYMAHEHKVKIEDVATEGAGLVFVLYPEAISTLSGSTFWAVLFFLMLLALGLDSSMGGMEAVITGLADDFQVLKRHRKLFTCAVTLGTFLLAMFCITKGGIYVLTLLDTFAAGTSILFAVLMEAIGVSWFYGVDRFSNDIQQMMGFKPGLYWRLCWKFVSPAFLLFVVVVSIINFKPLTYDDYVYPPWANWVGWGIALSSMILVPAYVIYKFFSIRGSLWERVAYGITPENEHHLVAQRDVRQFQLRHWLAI
Excerpt: Compound (I) has been characterized as a monoamine reuptake inhibitor, based on the profile in a series of functional assays (Table 2).

[4] = target: DAT (Homo sapiens, UniProt Q01959); experiment: MDS LeadProfilingScreen, DAT; type: binding
Chain of DAT (Q01959 whole entry): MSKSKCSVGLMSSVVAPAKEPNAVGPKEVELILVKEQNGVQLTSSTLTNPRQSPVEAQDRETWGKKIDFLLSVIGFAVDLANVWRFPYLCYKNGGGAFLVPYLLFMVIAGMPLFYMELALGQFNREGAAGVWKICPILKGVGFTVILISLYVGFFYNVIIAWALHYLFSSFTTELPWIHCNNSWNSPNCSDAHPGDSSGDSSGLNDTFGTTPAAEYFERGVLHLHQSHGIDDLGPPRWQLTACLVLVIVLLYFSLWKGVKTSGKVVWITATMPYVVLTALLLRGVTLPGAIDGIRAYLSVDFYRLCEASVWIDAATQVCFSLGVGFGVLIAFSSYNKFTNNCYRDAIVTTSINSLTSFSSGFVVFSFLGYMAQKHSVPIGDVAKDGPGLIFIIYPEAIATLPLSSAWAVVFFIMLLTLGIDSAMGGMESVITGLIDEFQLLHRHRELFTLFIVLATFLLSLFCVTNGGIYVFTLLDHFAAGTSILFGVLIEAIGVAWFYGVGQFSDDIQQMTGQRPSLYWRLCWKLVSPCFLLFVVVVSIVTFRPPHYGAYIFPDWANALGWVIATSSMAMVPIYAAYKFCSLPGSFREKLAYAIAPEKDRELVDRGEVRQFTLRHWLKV

[5] = target: NET (Homo sapiens, UniProt P23975); experiment: MDS LeadProfilingScreen, NET; type: binding
Chain of NET (P23975 whole entry): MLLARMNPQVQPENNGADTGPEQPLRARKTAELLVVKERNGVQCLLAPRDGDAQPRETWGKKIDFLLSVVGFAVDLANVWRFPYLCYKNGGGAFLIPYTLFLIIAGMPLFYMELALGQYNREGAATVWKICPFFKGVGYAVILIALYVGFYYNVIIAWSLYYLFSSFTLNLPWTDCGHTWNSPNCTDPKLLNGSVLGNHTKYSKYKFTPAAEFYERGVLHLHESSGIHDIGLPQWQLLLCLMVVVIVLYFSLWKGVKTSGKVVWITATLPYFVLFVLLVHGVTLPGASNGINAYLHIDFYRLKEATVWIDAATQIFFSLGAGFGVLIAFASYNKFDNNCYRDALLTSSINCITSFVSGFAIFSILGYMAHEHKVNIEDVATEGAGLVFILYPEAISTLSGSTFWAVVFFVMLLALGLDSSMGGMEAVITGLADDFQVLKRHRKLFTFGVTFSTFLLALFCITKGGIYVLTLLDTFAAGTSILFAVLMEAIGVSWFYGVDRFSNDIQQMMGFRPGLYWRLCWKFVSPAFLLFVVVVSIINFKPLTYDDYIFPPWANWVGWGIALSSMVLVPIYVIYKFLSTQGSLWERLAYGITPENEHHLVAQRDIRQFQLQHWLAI

[6] = 14-day repeat-dose study in Wistar rats; type: in vivo, rat
Protocol: In a 14-day repeat-dose study 4 groups of 4 male and 4 female Wistar rats were treated daily with either compound (I) at doses of 5, 10 and 15 mg/kg s.c. (Groups 2, 3 and 4), or vehicle, 5% glucose s.c. (Group 1). A satellite group 25 mg/kg s.c. (group5) was conducted accordingly to increase the exposure and efficacy.

[7] = beagle, dog, in vivo, iv
Protocol: Data presented are mean±s.e. mean where n=4 for all time points, excluding D2t7 where n=3, D3t7 where n=2, and D4t7 and D4t26 where no data was available. Animals received 1, 3, 10, and 30 mg/kg compound (I) as 4 intravenous infusions (starting at t0, D1t30, D2t30 and D3t30, respectively). Each dose was administered over 5 min, using an infusion pump, and the dose volume for each treatment was 2 ml/kg, with the exception of the fourth dose which was 3 ml/kg.
Data presented are mean±s.e. mean where n=4 for all time points, excluding D4t7 and D4t26 where no data was available. Animals received 1, 3, 10, and 30 mg/kg compound (I) as 4 intravenous infusions (starting at t0, D1t30, D2t30 and D3t30, respectively). Each dose was administered over 5 min, using an infusion pump, and the dose volume for each treatment was 2 ml/kg, with the exception of the fourth dose which was 3 ml/kg.

[8] = system: anesthetized rats; experiment: Induction of erection in anesthetized rats (intracavernous pressure); type: in vivo, rat
Protocol: FIG. 25: Average spontaneous increases in (A) intracavernous pressure, (B) duration and (C) frequency of these events after infusion of the compound (I) (1 mg/kg) in young (6 week old male Wistar rats) and old (14-16 week old male rats) rats. Results are means±s.e. mean.
FIG. 26: Average rises in number of spontaneous erections measured as intracavernous pressure (ICP) after infusion of, respectively, 0.001 mg/kg, 0.01 mg/kg, 0.1 mg/kg, and 1 mg/kg compound (I) in anesthetized rats (n=4-6).
FIG. 27: Average effect of (A) vehicle (n=5), and compound (I) on mean arterial pressure (MAP) and erectile response measured as peak intracavernous pressure (PICP) over MAP (PICP/MAP) in anesthetized (B) 6 week old male Wistar rats (n=6), and (C) 14-16 week old male rats (n=6). Vehicle and compound (I) were administered after establishing the maximal (10 Hz, 1 ms, 6 V) and submaximal (submax) responses (10 Hz, 1 ms, 0.6-1.55 V) to cavernous nerve stimulation for 30 s. Submaximal stimulation was repeated 3, 13, 23, and 33 min after drug or vehicle administration. Upper traces show the mean arterial pressure (MAP), bars represent the erectile response ((PICP/MAP)·100), where PICP is the peak intracavernous pressure. […]
Compound (I) was administered intravenously to rats in dosages of 0.001, 0.01, 0.1, and 1.0 mg/kg, and the number of spontaneous erections was measured. […]

[9] = Tissue distribution after single dose, mouse; type: in vivo; conditions: po; for AUC(0-t): female, NMRI, mouse 10 mg/kg p.o., read-out: AUC(0-24 h); for half-life: female NMRI mouse 10 mg/kg p.o., read-out: T½ (converted)
Protocol: Compound (I) was dosed to female NMRI mice 10 mg/kg p.o. Plasma was taken 0.5, 1, 2, 4, 6 and 24 post dose. Brain, liver and lung were taken 1, 4 and 24 hours post dose.
AUC and T½ were calculated for plasma and organs, even though the data are very sparse for the organs.

[10] = system: Salmonella typhimurium strains TA 100 and TA 98; experiment: Ames screening test; type: cell-based; conditions: 1.6 to 5000 μg/plate, presence or absence of S-9 mix
Protocol: Compound (I) was tested for genotoxicity in the Ames screening test using Salmonella typhimurium strains TA 100 and TA 98. Compound (I) was tested at dose levels of 1.6 to 5000 μg/plate in the presence or absence of S-9 mix.

[11] = 15 mg/kg s.c. 14 days (Group 4)
[12] = 25 mg/kg s.c. 14 days (Group 5)

O=c1ccc2ccc(O[C@@H]3C[C@H]4CC[C@@H](C3)N4)cc2o1 [Compound (I), exo-7-(8-aza-bicyclo[3.2.1]oct-3-yloxy)-chromen-2-one]
NA (AUC0-160 min) ([1]; Hippocampus, 3 mg/kg s.c., 3 mg/kg): 138±13%
NA (AUC0-160 min) ([1]; Pre-frontal cortex, 10 mg/kg s.c., 10 mg/kg): 135±4%
Activity [2]: increase in activity (sedation and stereotypic behaviour)
Body weight [2]: no significant changes in bodyweight
Ki [3]: 1300 nM
Ki [4]: 155 nM
inhibition at 10 µM ([4]; DAT, Human, 10 μM): 97%
Ki [5]: 594 nM
inhibition at 10 µM ([5]; NET, Human, 10 μM): 92%
Activity [6, 11]: increased activity in both males and females
Body weight gain [6, 11]: No changes in body weight gain were observed in the female rats, but a tendency to increased bodyweight in the group 4 males
Relative liver weights [6, 11]: reduced in group 4 females and increased in group 4 males
Activity [6, 12]: increased activity in both male and female
Body weight [6, 12]: minimal decreased body weight
Liver weight [6, 12]: No changes in liver weight
Macroscopic findings at termination ([6]; s.c. 14 days): no treatment-related macroscopic findings
Average conc. of compound (I) at 5 min (max), total plasma ([7]; 1 mg/kg): 631 ng/mL
Average conc. of compound (I) at 5 min (max), total plasma ([7]; 3 mg/kg): 2120 ng/mL
Average conc. of compound (I) at 5 min (max), total plasma ([7]; 10 mg/kg): 6560 ng/mL
Average conc. of compound (I) at 5 min (max), total plasma ([7]; 30 mg/kg): 15000 ng/mL
Induction of erection ([8]; 1 mg/kg): induce erection in both young and adult rats
Number of spontaneous erections versus dose ([8]; intravenously 0.001, 0.01, 0.1 and 1.0 mg/kg): increased with increasing dosage from 0.001 to 0.1 mg/kg, but decreased abruptly at a dose of 1.0 mg/kg
AUC(0-t) ([9]; Brain): 9350 ng·h/mL
AUC(0-t) ([9]; Liver): 38500 ng·h/mL
AUC(0-t) ([9]; Lung): 35700 ng·h/mL
AUC(0-t) ([9]; Plasma): 2220 ng·h/mL
half-life ([9]; Brain): 3 h
half-life ([9]; Liver): 2.5 h
half-life ([9]; Lung): 2.2 h
half-life ([9]; Plasma): 1.1 h
Mutagenic activity (genotoxicity) [10]: did not show any evidence of mutagenic activity

— patent publication US20220288052A1, “COMPOUND FOR COMBINATION TREATMENT” (priority 2019, published 2022)
